Laboratory results as given in patent US11977028B2, “Mechanical-bond-induced exciplex fluorescence” (Northwestern University, priority 2020, dated 2024).
Values belong to the compound of their own block, whether it stands above or below them.

Assay: Absorption and photoluminescence spectroscopy in solution
Format: physicochemical
Details: for absorption band (higher-energy band of the anthracene moiety) / absorption, vibronic peak of the anthracene moiety (lower-energy): high dilution; for emission band, vibronic peaks of the anthracene moiety: fluorescence spectroscopy, data not shown
Text: The close proximity of the anthracene units in the mechanically interlocked cyclophanes was expected to give rise to remarkable optical properties distinct from those of the free cyclophanes. We explored the absorption and fluorescence properties of all compounds at high dilution (4×10^−7 M) to avoid reabsorption processes^40 and aggregation effects.^17 All of the optical parameters are summarized in Tables 1 and 2. Initially, we explored the influence of the pyridine/pyridinium units on the optical properties of both ^2,6AnBox^4+ and ^9,10AnBox^4+ cyclophanes. The presence of two pyridinium units within the linker dramatically affect the optical properties of the anthracene moiety. Although ^2,6AnBPY (FIG. 5C) and ^9,10AnBPY display^41 characteristic vibronic peaks associated with the anthracene moiety at 290 and 400 nm, ^2,6AnDB^2+ and ^9,10AnDB^2+ display a shift of the band at 290 to 330 nm (FIG. 5A) and the emergence of a new featureless broad band at 450 nm associated with CT from the anthracene moiety to the pyridinium unit. It is noteworthy that phenylene-bridged bipyridyl linkers (ExBIPY) display^35 a single absorption peak at 325 nm in MeCN, while the anthracene moiety leads to the emergence of some push-pull D-A character.
All reagents were purchased from commercial suppliers (Aldrich or Fisher) and used without further purification. Anthracene derivatives, 9,10-bis(4-pyridyl)anthracene (^9.^10AnBPY) and 2,6-bis(4-pyridyl)anthracene (^2,6AnBPY) were synthesized following^1,2 reports in the literature. All reactions and manipulations were carried out under a dry N2 atmosphere using standard Schlenk. Thin-layer chromatography (TLC) was performed on silica gel 60 F254 TLC plates (Merck). Column chromatography was carried out using CombiFlash® Automation Systems (Teledyne ISCO) employing both normal phase (RediSep Rf Gold® Normal-Phase Silica) and reverse phase (RediSep Rf Gold® Reversed-phase C18). […] All the spectra were baseline-corrected with a MeCN blank sample. The photoluminescence spectra of all samples were obtained with a Fluorolog-3 spectrafluorometer (Horiba Jobin Yvon) in a 2-mm quartz cuvette with 3-nm slit width and a front-phase geometry. The time-correlated single photon counting setup is described elsewhere.^3 Nuclear magnetic resonance (NMR) spectra were recorded on a Bruker Avance III 500 and 600 MHz spectrometers, with working frequencies of 500 and 600 MHz (′H NMR) and 125 MHz (^13C NMR), respectively. Chemical shifts are reported in ppm relative to the signals corresponding to the residual non-deuterated solvents (CD3CN: δ1−1=1.94 ppm and δC=1.32 ppm). High-resolution mass spectra (HRMS) were measured on an Agilent 6210 Time of Flight (TOF) LC-MS, using an ESI source, coupled with Agilent 1100 HPLC stack, using direct infusion (0.6 mL min ^−1). The binding constants were determined using this link: website http://supramolecular.org.^4

- absorption band (higher-energy band of the anthracene moiety) (MeCN): 290 nm
- absorption, vibronic peak of the anthracene moiety (lower-energy) (MeCN): 400 nm
- emission band, vibronic peaks of the anthracene moiety: 440 nm
SMILES: c1cc(-c2ccc3cc4cc(-c5ccncc5)ccc4cc3c2)ccn1 [^2,6AnBPY, 2,6-bis(4-pyridyl)anthracene, reference compound]

- absorption band (higher-energy band of the anthracene moiety) (MeCN): 290 nm
- absorption, vibronic peak of the anthracene moiety (lower-energy) (MeCN): 400 nm
- emission band, vibronic peaks of the anthracene moiety: 440 nm
SMILES: c1ccc2c(-c3ccncc3)c3ccccc3c(-c3ccncc3)c2c1 [^9,10AnBPY, 9,10-bis(4-pyridyl)anthracene, reference compound]

- Φ (PL quantum yield) (4 × 10^−7 M, MeCN): 1.3%
- λabs (4 × 10^−7 M, MeCN): 415 nm
- λem (4 × 10^−7 M, MeCN): 566 nm
- τ (emission lifetime) (4 × 10^−7 M, MeCN, 405 nm excitation): 8.7 ns
- Stokes shifts (δ) (DMF, 4 × 10^−7 M): 6793 cm⁻¹
- λabs (DMF, 4 × 10^−7 M): 402 nm
- λem (DMF, 4 × 10^−7 M): 576 nm
- λexc (DMF, 4 × 10^−7 M): 414 nm
- Stokes shifts (δ) (EtOH, 4 × 10^−7 M): 6502 cm⁻¹
- λabs (EtOH, 4 × 10^−7 M): 409 nm
- λem (EtOH, 4 × 10^−7 M): 574 nm
- λexc (EtOH, 4 × 10^−7 M): 418 nm
- Stokes shifts (δ) (H2O, 4 × 10^−7 M): 6199 cm⁻¹
- λabs (H2O, 4 × 10^−7 M): 419 nm
- λem (H2O, 4 × 10^−7 M): 566 nm
- λexc (H2O, 4 × 10^−7 M): 419 nm
- Stokes shifts (δ) (Me2SO, 4 × 10^−7 M): 6966 cm⁻¹
- λabs (Me2SO, 4 × 10^−7 M): 403 nm
- λem (Me2SO, 4 × 10^−7 M): 570 nm
- λexc (Me2SO, 4 × 10^−7 M): 408 nm
- Stokes shifts (δ) (MeCN, 4 × 10^−7 M (Table 2)): 6371 cm⁻¹
- λabs (MeCN, 4 × 10^−7 M (Table 2)): 410 nm
- λem (MeCN, 4 × 10^−7 M (Table 2)): 566 nm
- λexc (MeCN, 4 × 10^−7 M (Table 2)): 416 nm
- Stokes shifts (δ) (MeOH, 4 × 10^−7 M): 6282 cm⁻¹
- λabs (MeOH, 4 × 10^−7 M): 402 nm
- λem (MeOH, 4 × 10^−7 M): 565 nm
- λexc (MeOH, 4 × 10^−7 M): 417 nm
SMILES: c1ccc2c3c4ccccc4c(c2c1)-c1cc[n+](cc1)Cc1ccc(cc1)C[n+]1ccc(cc1)-c1c2ccccc2c(c2ccccc12)-c1cc[n+](cc1)Cc1ccc(cc1)C[n+]1ccc-3cc1 [^9,10AnBox^4+]

- charge transfer (CT) absorption band (MeCN): 450 nm
- absorption band (higher-energy band of the anthracene moiety) (MeCN): 330 nm
SMILES: BrCc1ccc(C[n+]2ccc(-c3c4ccccc4c(-c4cc[n+](Cc5ccc(CBr)cc5)cc4)c4ccccc34)cc2)cc1 [^9,10AnDB^2+]
